# Reference: patent US8288315B2, “Fungicide mixtures” (BASF SE, priority 2007, dated 2012)
# Key:
# Botrytis cinerea = assay: Activity against gray mold on bell pepper leaves caused by Botrytis cinerea, 1 day protective application; type: in vivo; settings: bell pepper seedlings, sprayed 1 day before inoculation, rated after 5 days, efficacy as % of untreated control
# Protocol: (§1) The mixture was then made up with water to 100 ml.
# The next day, the treated plants were inoculated with a spore suspension of Botrytis cinerea in a 2% strength biomalt solution. The test plants were then placed in a dark climatized chamber at 22 to 24° C. and high atmospheric humidity. After 5 days, the extent of the fungal infection on the leaves could be determined visually in %.
# (§2) The visually determined percentages of infected leaf areas were converted into efficacies as % of the untreated control:
# (§3) The efficacy (E) is calculated as follows using Abbot's formula: E=(1−α/β)·100 • α corresponds to the fungicidal infection of the treated plants in % and • β corresponds to the fungicidal infection of the untreated (control) plants in %
# (§4) An efficacy of 0 means that the infection level of the treated plants corresponds to that of the untreated control plants; an efficacy of 100 means that the treated plants are not infected.
# Puccinia recondita = assay: Protective activity against Puccinia recondita on wheat (brown rust of wheat); type: in vivo; settings: wheat seedlings, sprayed 1 day before inoculation, rated after a further 7 days, efficacy as % of untreated control
# Protocol: as §1
# The next day, the treated plants were inoculated with a spore suspension of brown rust of wheat (Puccinia recondita). The plants were then placed in a chamber with high atmospheric humidity (90 to 95%) at 20 to 22° C. for 24 hours. During this time, the spores germinated and the germ tubes penetrated into the leaf tissue. The following day, the test plants were returned to the greenhouse and cultivated at temperatures between 20 and 22° C. and at 65 to 70% relative atmospheric humidity for a further 7 days. The extent of the rust fungus development on the leaves was then determined visually.
# as §2, §3, §4
SMILES,Observed effect (%) (Botrytis cinerea; 0.016 ppm),Observed effect (%) (Puccinia recondita; 0.25 ppm),Observed effect (%) (Botrytis cinerea; 0.25 ppm),Observed effect (%) (Puccinia recondita; 4 ppm)
"CC1(C)CCC(Cc2ccc(Cl)cc2)C1(O)Cn1cncn1 (stereo not drawn) [Metconazole, (1RS,5RS;1RS,5SR)-5-(4-chlorobenzyl)-2,2-dimethyl-1-(1H-1,2,4-triazol-1-ylmethyl)cyclopentanol]",0%,13%,–,–
"CCCN(CCOc1c(Cl)cc(Cl)cc1Cl)C(=O)n1ccnc1 [Prochloraz, N-propyl-N-[2-(2,4,6-trichlorophenoxy)ethyl]imidazole-1-carboxamide]",–,–,0%,0%
